Reference: patent US9522935B2, “Commands and method of treating cancer via RHO pathway” (priority 2013, dated 2016)

System: HepG2 cells
Experiment: Nude mouse model of hepatocellular carcinoma (HepG2), growth rate
Assay type: in vivo, nude mice
Details: nude mouse model, 75 mg/kg, twice a day, versus blank carrier control
Method: In contrast, LD30 (1 mg/kg/time, twice a day) reduced the growth rate of HepG2 cells by about 63%, with statistical significance (p<0.05) when compared with the ethanol control.
LD030 was also compared with Nexavar for their effects on the growth rate of HepG2 cells.
A further study was conducted on liver cancer cell line in nude mice (HepG2), where Nexavar's dosage was 30 mg/kg, twice a day and LD030's dosage was 1 mg/kg, twice a day along with a blank control and a combination of LD030 and Nexavar. The result is shown in FIG. 21 where Nr stands for Nexavar. […] When compared with the blank, LD030's effect is statistically significant (p<0.05).

CNC(=O)c1cc(Oc2ccc(NC(=O)Nc3ccc(Cl)c(C(F)(F)F)c3)cc2)ccn1 [Nexavar, reference compound]
reduction of growth rate of HepG2 cells: about 80%
